Assay results as given in patent US10562912B2 (C&C Research Laboratories, priority 2013, dated 2020).

What was measured:
Format in all cases: cell-based
[1] = system: LNCaP; assay: Cell growth inhibition assay, prostate cancer cell line LNCaP (medium with 10 ng/mL IL-6); settings: Homo sapiens, medium supplemented with 10 ng/mL of IL-6, 10,000 cells/well
[2] = system: AGS; assay: Cell growth inhibition assay, stomach cancer cell line AGS; settings: Homo sapiens; AGS stomach cancer cell line, 3,000 cells/well
[3] = molecular target: T1, STAT3 (Homo sapiens, UniProt P40763); assay: STAT3 reporter gene assay (luciferase), LNCaP stable cell line (pSTAT3-TA-luc), IL-6 stimulation
T1 construct: plasmid pSTAT3-TA-luc), which contains a stably operating STAT3 promoter; endogenous in cells
Method in brief: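 LNCaP cells stably carrying pSTAT3-TA-luc, in RPMI1640 with 3% DCC-FBS, were treated with compound and then stimulated with 10 ng/mL IL-6 for 24–48 h at 37 °C. Luciferase activity was measured in lysates. A parallel plate measured viability by CellTiter-Glo, with stimulated 0.1% DMSO wells as the positive control.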

T1 sequence (P40763 whole entry): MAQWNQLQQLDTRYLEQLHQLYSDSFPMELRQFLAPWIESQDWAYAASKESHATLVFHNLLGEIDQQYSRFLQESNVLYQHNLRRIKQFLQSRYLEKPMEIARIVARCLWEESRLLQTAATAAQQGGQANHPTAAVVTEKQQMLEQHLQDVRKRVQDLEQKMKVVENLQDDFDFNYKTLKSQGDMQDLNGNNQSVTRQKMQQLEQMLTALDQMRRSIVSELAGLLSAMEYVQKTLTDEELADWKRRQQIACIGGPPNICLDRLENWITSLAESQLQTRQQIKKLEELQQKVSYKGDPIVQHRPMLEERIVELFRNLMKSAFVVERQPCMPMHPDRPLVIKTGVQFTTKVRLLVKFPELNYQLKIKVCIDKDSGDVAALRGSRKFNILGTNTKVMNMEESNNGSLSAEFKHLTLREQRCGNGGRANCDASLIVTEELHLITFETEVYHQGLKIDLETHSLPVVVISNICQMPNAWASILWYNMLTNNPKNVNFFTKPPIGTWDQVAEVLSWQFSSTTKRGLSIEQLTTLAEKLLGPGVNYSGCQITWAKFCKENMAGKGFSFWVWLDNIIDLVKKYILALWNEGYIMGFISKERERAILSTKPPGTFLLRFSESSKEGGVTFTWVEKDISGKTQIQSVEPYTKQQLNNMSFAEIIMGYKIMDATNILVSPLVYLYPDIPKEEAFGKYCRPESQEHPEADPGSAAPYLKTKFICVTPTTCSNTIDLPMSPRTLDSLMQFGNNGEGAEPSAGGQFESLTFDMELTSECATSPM

| SMILES | IC50 [1] | IC50 [2] | IC50 [3] |
| --- | --- | --- | --- |
| COc1cc(C(F)(F)F)c(-c2cccc(NC(=O)c3cc4ccc(NS(C)(=O)=O)cc4[nH]3)c2)cc1C(N)=O [Example 377, N-(5′-carbamoyl-4′-methoxy-2′-(trifluoromethyl)-[1,1′-biphenyl]-3-yl)-6-(methylsulfonamido)-1H-indole-2-carboxamide] | > 10 µM | 15.2 µM | > 10 µM |
| O=C(Nc1cccc(-c2ccccc2C(F)(F)F)c1)c1cc2ccc(NS(=O)(=O)CC(F)(F)F)cc2[nH]1 [Example 264, 6-(2,2,2-trifluoroethylsulfonamido)-N-(2′-(trifluoromethyl)-[1,1′-biphenyl]-3-yl)-1H-indole-2-carboxamide] | 6.2 µM | 13 µM | 1.9 µM |
| COc1ccc(S(=O)(=O)c2cccc(NC(=O)c3cc4ccc(NS(C)(=O)=O)cc4[nH]3)c2)cc1 [Example 394, N-(3-((4-methoxyphenyl)sulfonyl)phenyl)-6-(methylsulfonamido)-1H-indole-2-carboxamide] | > 10 µM | 20 µM | 3.3 µM |
| CS(=O)(=O)Nc1ccc2cc(C(=O)Nc3cccc(-c4ncccc4C(F)(F)F)c3)[nH]c2c1 [Example 290, 6-(methylsulfonamido)-N-(3-(3-(trifluoromethyl)pyridin-2-yl)phenyl)-1H-indole-2-carboxamide] | > 10 µM | 20.9 µM | 7 µM |
| CC(C)(Oc1ccc2cc(C(=O)Nc3cccc(-c4ccc(F)cc4F)c3)[nH]c2c1)C(=O)O [Example 254, 2-((2-((2′,4′-difluoro-[1,1′-biphenyl]-3-yl)carbamoyl)-1H-indol-6-yl)oxy)-2-methylpropanoic acid] | > 10 µM | > 50 µM | > 10 µM |
| O=C(Nc1cccc(-c2ccc(F)cc2C(F)(F)F)c1)C1Cc2ccc([N+](=O)[O-])cc2N1 (stereo not drawn) [Example 229, N-(4′-fluoro-2′-(trifluoromethyl)-[1,1′-biphenyl]-3-yl)-6-nitroindoline-2-carboxamide] | 5.4 µM | 16.1 µM | 1.4 µM |
| Cn1c(C(=O)Nc2cccc(-c3ccc(F)cc3F)c2)cc2ccc(NS(C)(=O)=O)cc21 [Example 248, N-(2′,4′-difluoro-[1,1′-biphenyl]-3-yl)-1-methyl-6-(methylsulfonamido)-1H-indole-2-carboxamide] | 9.6 µM | 15.7 µM | 6.1 µM |
| O=C(Nc1cccc(-c2ccc(F)cc2C(F)(F)F)c1)c1cc2ccc([N+](=O)[O-])cc2[nH]1 [Example 244, N-(4′-fluoro-2′-(trifluoromethyl)-[1,1′-biphenyl]-3-yl)-6-nitro-1H-indole-2-carboxamide] | > 10 µM | 30.6 µM | > 10 µM |
| CS(=O)(=O)Nc1ccc2cc(C(=O)Nc3cccc(-c4ccc(S(N)(=O)=O)cc4C(F)(F)F)c3)[nH]c2c1 [Example 283, 6-(methylsulfonamido)-N-(4′-sulfamoyl-2′-(trifluoromethyl)-[1,1′-biphenyl]-3-yl)-1H-indole-2-carboxamide] | > 10 µM | 18.2 µM | 7.4 µM |
| CCOC(=O)COc1ccc2cc(C(=O)Nc3cccc(-c4ccc(F)cc4F)c3)[nH]c2c1 [Example 255, ethyl 2-((2-((2′,4′-difluoro-[1,1′-biphenyl]-3-yl)carbamoyl)-1H-indol-6-yl)oxy)acetate] | > 10 µM | 18.1 µM | > 10 µM |
| CS(=O)(=O)Nc1ccc2cc(C(=O)Nc3cccc(-c4cnc(Cl)cc4C(F)(F)F)c3)[nH]c2c1 [Example 294, N-(3-(6-chloro-4-(trifluoromethyl)pyridin-3-yl)phenyl)-6-(methylsulfonamido)-1H-indole-2-carboxamide] | 3.5 µM | 16.1 µM | 2.6 µM |
| CS(=O)(=O)Nc1ccc2[nH]c(C(=O)Nc3cccc(-c4ccc(F)cc4F)c3)cc2c1 [Example 272, N-(2′,4′-difluoro-[1,1′-biphenyl]-3-yl)-5-(methylsulfonamido)-1H-indole-2-carboxamide] | 2.6 µM | 18.8 µM | 0.5 µM |
| CS(=O)(=O)Nc1ccc2c(c1)NC(C(=O)Nc1cccc(-c3ccc(F)cc3F)c1)C2 (stereo not drawn) [Example 261, N-(2′,4′-difluoro-[1,1′-biphenyl]-3-yl)-6-(methylsulfonamido)indoline-2-carboxamide] | 2.9 µM | 28.4 µM | 2.4 µM |
| CS(=O)(=O)Nc1ccc2cc(C(=O)Nc3cccc(S(=O)(=O)c4cccc(C#N)n4)c3)[nH]c2c1 [Example 406, N-(3-((6-cyanopyridin-2-yl)sulfonyl)phenyl)-6-(methylsulfonamido)-1H-indole-2-carboxamide] | > 10 µM | 17.6 µM | > 10 µM |
| Nc1ccc2[nH]c(C(=O)Nc3cccc(-c4ccccc4C(F)(F)F)c3)cc2c1 [Example 258, 5-amino-N-(2′-(trifluoromethyl)-[1,1′-biphenyl]-3-yl)-1H-indole-2-carboxamide] | 5.2 µM | 16.3 µM | 2.7 µM |
| Nc1ccc2cc(C(=O)Nc3cccc(-c4ccc(F)cc4F)c3)[nH]c2c1 [Example 271, 6-amino-N-(2′,4′-difluoro-[1,1′-biphenyl]-3-yl)-1H-indole-2-carboxamide] | 8.6 µM | 26.1 µM | 5.9 µM |
| COc1cc(C#N)cc(S(=O)(=O)c2cccc(NC(=O)c3cc4ccc(NS(C)(=O)=O)cc4[nH]3)c2)c1 [Example 411, N-(3-((3-cyano-5-methoxyphenyl)sulfonyl)phenyl)-6-(methylsulfonamido)-1H-indole-2-carboxamide] | > 10 µM | 35.2 µM | 3.6 µM |
| CS(=O)(=O)Nc1ccc2cc(C(=O)Nc3cccc(-c4cc(C(N)=O)ccc4C(F)(F)F)c3)[nH]c2c1 [Example 379, N-(5′-carbamoyl-2′-(trifluoromethyl)-[1,1′-biphenyl]-3-yl)-6-(methylsulfonamido)-1H-indole-2-carboxamide] | > 10 µM | 30.1 µM | > 10 µM |
| O=C(Nc1cccc(-c2ccc(F)cc2F)c1)c1cc2ccc(NS(=O)(=O)CC(F)(F)F)cc2[nH]1 [Example 273, N-(2′,4′-difluoro-[1,1′-biphenyl]-3-yl)-6-(2,2,2-trifluoroethylsulfonamido)-1H-indole-2-carboxamide] | 4.1 µM | 10 µM | 2.2 µM |
| CS(=O)(=O)Nc1ccc2cc(C(=O)Nc3cccc(-c4ccc(F)cc4C(F)(F)F)c3)[nH]c2c1 [Example 277, N-(4′-fluoro-2′-(trifluoromethyl)-[1,1′-biphenyl]-3-yl)-6-(methylsulfonamido)-1H-indole-2-carboxamide] | 1.8 µM | 2.1 µM | 0.38 µM |
| COc1cccc(S(=O)(=O)c2cccc(NC(=O)c3cc4ccc(NS(C)(=O)=O)cc4[nH]3)c2)n1 [Example 408, N-(3-((6-methoxypyridin-2-yl)sulfonyl)phenyl)-6-(methylsulfonamido)-1H-indole-2-carboxamide] | > 10 µM | 24.2 µM | 2.4 µM |
| COC(=O)c1cc(-c2cccc(NC(=O)c3cc4ccc(NS(C)(=O)=O)cc4[nH]3)c2)c(C(F)(F)F)cc1OC [Example 289, methyl 4-methoxy-3′-(6-(methylsulfonamido)-1H-indole-2-carboxamido)-6-(trifluoromethyl)-[1,1′-biphenyl]-3-carboxylate] | > 10 µM | 32 µM | > 10 µM |
| CS(=O)(=O)Nc1ccc2cc(C(=O)Nc3cccc(S(=O)(=O)c4ccc5c(=O)ccoc5c4)c3)[nH]c2c1 [Example 413, 6-(methylsulfonamido)-N-(3-((4-oxo-4H-chromen-7-yl)sulfonyl)phenyl)-1H-indole-2-carboxamide] | > 10 µM | > 50 µM | > 10 µM |
| CS(=O)(=O)Nc1ccc2cc(C(=O)Nc3cccc(-c4cc(C(N)=O)ccc4Cl)c3)[nH]c2c1 [Example 380, N-(5′-carbamoyl-2′-chloro-[1,1′-biphenyl]-3-yl)-6-(methylsulfonamido)-1H-indole-2-carboxamide] | > 10 µM | 42.6 µM | > 10 µM |
| O=C(Nc1cccc(-c2ccccc2C(F)(F)F)c1)c1cc2cc([N+](=O)[O-])ccc2[nH]1 [Example 227, 5-nitro-N-(2′-(trifluoromethyl)-[1,1′-biphenyl]-3-yl)-1H-indole-2-carboxamide] | > 10 µM | 30 µM | > 10 µM |
| CS(=O)(=O)Nc1ccc2cc(C(=O)Nc3cccc(S(=O)(=O)c4ccccn4)c3)[nH]c2c1 [Example 403, 6-(methylsulfonamido)-N-(3-(pyridin-2-ylsulfonyl)phenyl)-1H-indole-2-carboxamide] | > 10 µM | 34.4 µM | 8.2 µM |
| Cn1c(C(=O)Nc2cccc(-c3ccc(F)cc3F)c2)cc2ccc([N+](=O)[O-])cc21 [Example 247, N-(2′,4′-difluoro-[1,1′-biphenyl]-3-yl)-1-methyl-6-nitro-1H-indole-2-carboxamide] | 3.7 µM | > 50 µM | > 10 µM |
| CS(=O)(=O)Nc1ccc2c(C(=O)Nc3cccc(-c4ccccc4C(F)(F)F)c3)c[nH]c2c1 [Example 266, 6-(methylsulfonamido)-N-(2′-(trifluoromethyl)-[1,1′-biphenyl]-3-yl)-1H-indole-3-carboxamide] | > 10 µM | 8.5 µM | 6.8 µM |
| O=C(Nc1cccc(-c2ccccc2C(F)(F)F)c1)C1Cc2ccc([N+](=O)[O-])cc2N1 (stereo not drawn) [Example 230, 6-nitro-N-(2′-(trifluoromethyl)-[1,1′-biphenyl]-3-yl)indoline-2-carboxamide] | 2.7 µM | 17.6 µM | 1.1 µM |
